Consider 20 compounds from patent US20110053900A1, “PROGESTERONE ANTAGONISTS SUCH AS CDB-4124 IN THE TREATMENT OF BREAST CANCER” (Repros Therapeutics inc, priority 2008, published 2011).

Test [1] concerns rabbit progesterone receptor (rbPR) and glucocorticoid receptor (rbGR). Briefly: Receptor-binding assays, ratio of relative binding affinities rbPR/rbGR. The note with it: RBA = EC50 of standard/EC50 of test compound x 100. As for the experimental part:
Certain antiprogestins were tested in receptor-binding assays for their ability to bind rabbit progesterone receptor (rbPR) and glucocorticoid receptor (rbGR). Briefly, cytosol containing PR or GR were prepared in TEGMD buffer (10 mM Tris, pH 7.2, 1.5 mM EDTA, 0.2 mM sodium molybdate, 10% glycerol, 1 mM DTT) from uterus or thymus, respectively, of estradiol-primed immature rabbits. For PR binding, the cytosol was incubated with 6 nM 1,2-[^3H]progesterone (50.0 Ci/mmole) and competitors were added at concentrations from 2 to 100 nM. For binding to GR, the cytosol was incubated with 6 nM 6,7-[^3H]-dexamethasone (40 Ci/mmol) and test compounds were added at concentrations from 20 to 100 nM. After overnight incubation at 4° C., bound and unbound [^3H] steroids were separated by addition of dextran-coated charcoal and centrifugation at 2100×g for 15 min at 4
C. Supernatants containing the [3H]-steroid receptor complexes were decanted into vials containing 4 ml Optifluor (Packard Instrument Co.), vortexed, equilibrated in a liquid scintillation counter for 30 minutes and then counted for 2 minutes. The ECso (Effective Concentration) for each standard curve and each of the compound curves was determined by entering the counting data into a four parameter sigmoidal computer program (RiaSmart® Immunoassay Data Reduction Program, Packard Instrument Co., Meriden, Conn.). Relative binding affinity (RBA) for each compound was calculated using the following equation: EC50 of standard/EC50 of test compound×100. The standards for the PR and GR assays were unlabeled progesterone and dexamethasone, respectively. The results of these experiments are summarized in Table 1, as a ratio of the relative binding affinities of each compound for the rbPR and rbGR receptors (rbPR/rbGR).

In the next test the test system is rabbit uterus. Briefly: Anti-McGinty and anti-Clauberg assays. The test is classed as in vivo. The settings on record: average of anti-McGinty and anti-Clauberg results relative to CDB-2914 = 1.00. An excerpt:
Also given in the Table are the relative biological activities of the same compounds in the rabbit uterus by the anti-McGinty and anti-Clauberg assays. Compound CDB-2914 (listed at the end of the Table) was used as the control or reference compound (rabbit Biological Activity=1.00) for these experiments because results of experiments using CDB-2914 have been published before (Hild-Petito et al., 1996; Passaro et al., 1997; Reel et al., 1998; Lamer et al., 2000). For the anti-McGinty test, immature female rabbits received a subcutaneous injection of 5 μg estradiol in 10% ethanol/sesame oil daily for 6 consecutive days. On day 7, animals underwent sterile abdominal surgery to ligate a 3-4 cm segment of both uterine horns. The test compound in appropriate solvent was injected intraluminally into the ligated segment of one uterine horn and vehicle alone into the other. A stimulating dose of progesterone (267 μg/day) was administered subcutaneously to each rabbit daily for the next three days to induce endometrial proliferation. All animals were sacrificed at day 10 for removal of the uterus where a segment central to the ligatures was removed and fixed in 10% neutral buffered formalin and submitted for histological processing. Five micron sections stained with hematoxylin and cosin were evaluated microscopically for the degree of endometrial glandular proliferation. The percent inhibition of endometrial proliferation for each rabbit was calculated and the mean of the group of five animals recorded. For the Anti-Clauberg test, immature female rabbits received a subcutaneous injection of 5 μg estradiol in 10% ethanol/sesame oil daily for 6 consecutive days. On day 7, animals received progesterone by subcutaneous injection (160 μg/day) and the experimental compound in appropriate vehicle orally or subcutaneously for five consecutive days. One group of rabbits received progesterone only. Twenty-four hours after the last dose, all animals were sacrificed for removal of the uterus which was cleaned of all fat and connective tissue, weighed to the nearest 0.2 mg and placed in 10% neutral buffered formalin for subsequent histological processing. Five micron sections stained with hematoxylin and eosin were evaluated microscopically for the degree of endometrial glandular proliferation. The percent inhibition of endometrial proliferation at each dose level of the test compound was derived by comparison with progesterone-stimulated animals alone. The data presented in Table 1 (rabbit Biol. Act.) reflects the average of the results obtained for each compound by the anti-McGinty and anti-Clauberg assays relative to CDB-2914.

With `CC(=O)O[C@]1(C2COC(C)(C)O2)CCC2C3CCC4=CC(=O)CCC4=C3C(c3ccc(N(C)C)cc3)C[C@@]21C` (stereo partly drawn) [CDB-4110, 21-acetonide-17α-acetoxy-11β-(4 N,N-dimethylaminophenyl)-19-norpregna-4,9-diene-3,20-dione], the “rbPR/rbGR (ratio of the relative binding affinities for rbPR and rbGR)” value in test [1] is listed as 0.70.

With `COCC(=O)[C@@]1(OC(C)=O)CCC2C3CCC4=C(C(=O)c5ccccc5)C(=O)CCC4=C3C(c3ccc(N(C)C)cc3)C[C@@]21C` (stereo partly drawn) [CDB-4239, 4-benzoin-21-methoxy-17α-acetoxy-11β-(4 N,N-dimethylaminophenyl)-19-norpregna-4,9-diene-3,20-dione], the “rbPR/rbGR (ratio of the relative binding affinities for rbPR and rbGR)” value in test [1] was 14.80.

Regarding “4-benzoin-21-acetylthio-17α-acetoxy-11β-(4 N,N-dimethylaminophenyl)-19-norpregna-4,9-diene-3,20-dione [CDB-4119]”, the “rbPR/rbGR (ratio of the relative binding affinities for rbPR and rbGR)” value in test [1] was 2.60. In addition, in the test with rabbit uterus, the “rabbit Biol. Act.” value stood at 0.10.

“21-BMD-17α-acetoxy-11β-(4 N,N-dimethylaminophenyl)-19-norpregna-4,9-diene-3,20-dione [CDB-4111]”: in test [1], the “rbPR/rbGR (ratio of the relative binding affinities for rbPR and rbGR)” value was 1.30. The “rabbit Biol. Act.” value in the test with rabbit uterus stood at 0.36.

`CC(=O)O[C@]1(C(=O)CBr)CCC2C3CCC4=CC(=O)CCC4=C3C(c3ccc(N(C)C)cc3)C[C@@]21C` (stereo partly drawn) [CDB-4031, 21-bromine-17α-acetoxy-11β-(4 N,N-dimethylaminophenyl)-19-norpregna-4,9-diene-3,20-dione]: in test [1], the “rbPR/rbGR (ratio of the relative binding affinities for rbPR and rbGR)” value is on record as 0.69.

For the compound `C=COCC(=O)[C@@]1(OC(C)=O)CCC2C3CCC4=CC(=O)CCC4=C3C(c3ccc(N(C)C)cc3)C[C@@]21C` (stereo partly drawn) [CDB-4361, 21-vinyl ether-17α-acetoxy-11β-(4 N,N-dimethylaminophenyl)-19-norpregna-4,9-diene-3,20-dione], the “rbPR/rbGR (ratio of the relative binding affinities for rbPR and rbGR)” value in test [1] came to 7.20.

In the case of `CC(=O)O[C@]1(C(=O)CSC#N)CCC2C3CCC4=CC(=O)CCC4=C3C(c3ccc(N(C)C)cc3)C[C@@]21C` (stereo partly drawn) [CDB-4352, 21-cyanothio-17α-acetoxy-11β-(4 N,N-dimethylaminophenyl)-19 norpregna-4,9-diene-3,20-dione], the “rbPR/rbGR (ratio of the relative binding affinities for rbPR and rbGR)” value in test [1] was found to be 4.21.

Regarding `COCC(=O)C1(OC(C)=O)CCC2C3CCC4=CC(=NO)CCC4=C3C(c3ccc(N(C)C)cc3)C[C@@]21C` (stereo partly drawn) [CDB-4205, 3-hydroxyamino-21-methoxy-17α-acetoxy-11β-(4 N,N-dimethylaminophenyl)-19-norpregna-4,9-diene-3,20-dione], the “rbPR/rbGR (ratio of the relative binding affinities for rbPR and rbGR)” value in test [1] was 1.99. Also, the “rabbit Biol. Act.” value in the test with rabbit uterus amounted to 1.00.

In the case of `CCOCC(=O)[C@@]1(OC(C)=O)CCC2C3CCC4=CC(=NO)CCC4=C3C(c3ccc(N(C)C)cc3)C[C@@]21C` (stereo partly shown) [CDB-4226], the “rbPR/rbGR (ratio of the relative binding affinities for rbPR and rbGR)” value in test [1] is 1.51. In the test on rabbit uterus, the “rabbit Biol. Act.” value is 0.54.

As for `CC(=O)O[C@]1(C(=O)COC(=O)CN)CCC2C3CCC4=CC(=O)CCC4=C3C(c3ccc(N(C)C)cc3)C[C@@]21C` (stereo partly drawn) [CDB-4306, 21-glycinate-17α-acetoxy-11β-(4 N,N-dimethylaminophenyl)-19-norpregna-4,9-diene-3,20-dione], the “rbPR/rbGR (ratio of the relative binding affinities for rbPR and rbGR)” value in test [1] is recorded as 5.90. The “rabbit Biol. Act.” value in the test on rabbit uterus was 0.95.

For the compound `CC(=O)OCC(=O)[C@@]1(OC(C)=O)CCC2C3CCC4=CC(=NO)CCC4=C3C(c3ccc(N(C)C)cc3)C[C@@]21C` (stereo partly drawn) [CDB-4206, 3-hydroxyamino-21-acetoxy-17α-acetoxy-11β-(4 N,N-dimethylaminophenyl)-19-norpregna-4,9-diene-3,20-dione], the “rbPR/rbGR (ratio of the relative binding affinities for rbPR and rbGR)” value in test [1] was found to be 1.44. For the same compound, the “rabbit Biol. Act.” value in the test on rabbit uterus was 0.68.

`CCC(=O)OCC(=O)[C@@]1(OC(C)=O)CCC2C3CCC4=CC(=O)CCC4=C3C(c3ccc(N(C)C)cc3)C[C@@]21C` (stereo partly drawn) [CDB-4247, 21-propionyloxy-17α-acetoxy-11β-(4 N,N-dimethylaminophenyl)-19-norpregna-4,9-diene-3,20-dione]: the “rbPR/rbGR (ratio of the relative binding affinities for rbPR and rbGR)” value in test [1] is 2.06.

Regarding “21-(Cyp*-hydroxy)-17α-acetoxy-11β-(4 N,N-dimethylaminophenyl)-19-norpregna-4,9-diene-3,20-dione [CDB-4125]”, the “rbPR/rbGR (ratio of the relative binding affinities for rbPR and rbGR)” value in test [1] came to 1.19. The “rabbit Biol. Act.” value in the test on rabbit uterus was 1.55.

`CC(=O)O[C@]1(C(=O)CO)CCC2C3CCC4=CC(=O)CCC4=C3C(c3ccc(N(C)C)cc3)C[C@@]21C` (stereo partly drawn) [CDB-4152, 21-hydroxy-17α-acetoxy-11β-(4 N,N-dimethylaminophenyl)-19-norpregna-4,9-diene-3,20-dione]: the “rbPR/rbGR (ratio of the relative binding affinities for rbPR and rbGR)” value in test [1] was 0.82.

As to `CC(=O)O[C@]1(C(=O)CF)CCC2C3CCC4=CC(=O)CCC4=C3C(c3ccc(N(C)C)cc3)C[C@@]21C` (stereo partly drawn) [CDB-4058, 21-flourine-17α-acetoxy-11β-(4 N,N-dimethylaminophenyl)-19-norpregna-4,9-diene-3,20-dione], the “rbPR/rbGR (ratio of the relative binding affinities for rbPR and rbGR)” value in test [1] is reported as 1.08.

On to “21-methoxyacetyl-17α-acetoxy-11β-(4 N,N-dimethylaminophenyl)-19-norpregna-4,9-diene-3,20-dione [CDB-4362]”, for which, in test [1], the “rbPR/rbGR (ratio of the relative binding affinities for rbPR and rbGR)” value was 4.74. In the test on rabbit uterus, the “rabbit Biol. Act.” value came to 1.25.

`CCC(=O)[C@@]1(OC(C)=O)CCC2C3CCC4=CC(=O)CCC4=C3C(c3ccc(N(C)C)cc3)C[C@@]21C` (stereo partly drawn) [CDB-4030, 21-methyl-17α-acetoxy-11β-(4 N,N-dimethylaminophenyl)-19-norpregna-4,9-diene-3,20-dione]: the “rbPR/rbGR (ratio of the relative binding affinities for rbPR and rbGR)” value in test [1] is 0.96.

For the compound `CC(=O)O[C@]1(C(=O)C[S+](C)[O-])CCC2C3CCC4=CC(=O)CCC4=C3C(c3ccc(N(C)C)cc3)C[C@@]21C` (stereo partly drawn) [CDB-4101, 21-methoxythio-17α-acetoxy-11β-(4 N,N-dimethylaminophenyl)-19-norpregna-4,9-diene-3,20-dione], the “rbPR/rbGR (ratio of the relative binding affinities for rbPR and rbGR)” value in test [1] stood at 0.61.

In the case of `CSCC(=O)[C@@]1(OC(C)=O)CCC2C3CCC4=CC(=O)CCC4=C3C(c3ccc(N(C)C)cc3)C[C@@]21C` (stereo partly drawn) [CDB-4223, 21-methylthio-17α-acetoxy-11β-(4 N,N-dimethylaminophenyl)-19-norpregna-4,9-diene-3,20-dione], in test [1], the “rbPR/rbGR (ratio of the relative binding affinities for rbPR and rbGR)” value is reported as 1.17.

In the case of `CCOCC(=O)[C@@]1(OC(C)=O)CCC2C3CCC4=CC(=O)CCC4=C3C(c3ccc(N(C)C)cc3)C[C@@]21C` (stereo partly drawn) [CDB-4167, 21-ethyloxy-17α-acetoxy-11β-(4 N,N-dimethylaminophenyl)-19-norpregna-4,9-diene-3,20-dione], the “rbPR/rbGR (ratio of the relative binding affinities for rbPR and rbGR)” value in test [1] came to 1.69.
